The text below walks through data of US10633389B2, “CARM1 inhibitors and uses thereof” (Epizyme, Inc., priority 2013, dated 2020).

Bounds are passed on as bounds.

The subject of this test is asymmetric di-methyl PABP1 in RKO cells. Nature of the test: RKO methylation assay, In Cell Western (ICW) for asymmetric di-methyl PABP1. Type of test: cell-based. The conditions noted are these: Homo sapiens, RKO, Cellular potencies, ICW PABP1me2a. From the text:
RKO adherent cells were purchased from ATCC (American Type Culture Collection), Manassas, Va., USA. DMEM/Glutamax medium, penicillin-streptomycin, heat inactivated fetal bovine serum, 0.05% trypsin and D-PBS were purchased from Life Technologies, Grand Island, N.Y., USA. Odyssey blocking buffer, 800 CW goat anti-rabbit IgG (H+L) antibody, and Licor Odyssey infrared scanner were purchased from Licor Biosciences, Lincoln, Nebr., USA. Asymmetric di-methyl PABP1 antibody was purchased from Cell Signaling Technology, Danvers, Mass., USA. Methanol was purchased from VWR, Franklin, Mass., USA. 10% Tween 20 was purchased from KPL, Inc., Gaithersburg, Md., USA. Paraformaldehyde (PFA) was purchased from EM Sciences. DRAQ5 was purchased from Biostatus Limited, Leicestershire, UK.
RKO adherent cells were maintained in growth medium (DMEM/Glutamax medium supplemented with 10% v/v heat inactivated fetal bovine serum and 100 units/mL penicillin-streptomycin) and cultured at 37° C. under 5% CO2.
Cell treatment, In Cell Western (ICW) for detection of asymmetric di-methyl PABP1 and DNA content: RKO cells were seeded in assay medium at a concentration of 30,000 cells per mL to a poly-D-lysine coated 384 well culture plate (BD Biosciences 356697) with 50 VL per well. Compound (100 nL) from a 96-well source plate was added directly to 384 well cell plate. Plates were incubated at 37° C., 5% CO2 for 48 hours. After two days of incubation, plates were brought to room temperature outside of the incubator for ten minutes and blotted on paper towels to remove cell media. Cells were fixed for 20 minutes at room temperature by adding 50 ul of 8% PFA followed by aspiration of supernatant with the Biotek EL406 plate washer. Cells were then permeabilized by addition of 50 μL of ice cold 100% methanol directly to each well and incubated for 30 min at room temperature. After 30 min, plates were transferred to a Biotek EL406 plate washer and washed 2 times with 100 μL per well of wash buffer (1×PBS). Next 60 μL per well of Odyssey blocking buffer (Odyssey Buffer with 0.1% Tween 20 (v/v)) were added to each plate and incubated 1 hour at room temperature. Blocking buffer was removed and 20 μL per well of primary antibody was added (asymmetric-methyl PABP1) diluted 1:400 in Odyssey buffer with 0.1% Tween 20 (v/v)) and plates were incubated overnight (16 hours) at 4° C. Plates were washed 5 times with 100 μL per well of wash buffer. Next 20 μL per well of secondary antibody was added (1:800 800 CW goat anti-rabbit IgG (H+L) antibody, 1:2000 DRAQ5 in Odyssey buffer with 0.1% Tween 20 (v/v)) and incubated for 1 hour at room temperature. The plates were washed 5 times with 100 μL per well wash buffer then 2 times with 100 μL per well of water. Plates were allowed to dry at room temperature then imaged on the Licor Odyssey machine which measures integrated intensity at 700 nm and 800 nm wavelengths. Both 700 and 800 channels were scanned.
First, the ratio for each well was determined by:
Each plate included fourteen control wells of DMSO only treatment (minimum inhibition) as well as fourteen control wells for maximum inhibition treated with 20 μM of a reference compound. The average of the ratio values for each control type was calculated and used to determine the percent […] for each test well in the plate. Reference compound was serially diluted three-fold in DMSO for a total of nine test concentrations, beginning at 20 μM.
Percent inhibition was determined and IC50 curves were generated using triplicate wells per concentration of compound. […]

Turning to `CNCC(O)COc1cccc(-c2nc(N[C@@H]3CCOC3)c(C)c(N3CCN(C)C(=O)C3)n2)c1` (stereo partly shown) [Example 435-1a], the 50% inhibitory concentration (IC50) is 10 to 20 µM.

In turn, `CNC[C@@H](O)COc1ccc(Cl)c(-c2nc(OC[C@H]3CCCO3)c(C)c(-c3c(C)noc3C)n2)c1` [Example 116-3] had an IC50 below 5 µM.

`CNCC(O)COc1cccc(-c2nc(N[C@@H]3CCOC3)c(C)c(N3CCOCC3)n2)c1` (stereo partly shown) [Example 3-1] came in with an IC50 of 5 to 10 µM.

`CNCC(O)COc1ccc(Cl)c(-c2nc(N[C@H]3CCC[C@@H](O)C3)c(C)c(-c3c(C)noc3C)n2)c1` (stereo partly shown) [Example 39-3] came in with an IC50 below 5 µM.

As for `CCOC(=O)N1CCOC[C@@H]1CNc1nc(-c2cccc(OC[C@H](O)CNC)c2)nc(-c2c(C)noc2C)c1C` [Example 277-1a], the IC50 was below 5 µM.

With `CNCC(O)COc1cccc(-c2nc(NC3CCOCC3)c(F)c(-c3c(C)noc3C)n2)c1` (stereo not shown) [Example 96-1a], the IC50 was below 5 µM.

In the case of `CNC[C@@H](O)COc1ccc(Cl)c(-c2nc(-c3c(C)noc3C)c(C)c(N3Cc4nn(C)c(C)c4C3)n2)c1` [Example 252-3], the IC50 was below 5 µM.

Regarding `CNCC(O)COc1cccc(-c2nc(-c3cnc4c(C(=O)OC)cnn4c3)cc(N(C)C3CCOCC3)n2)c1` (stereo not shown) [Example 482-1a], the IC50 was below 5 µM.

`CNCC(O)COc1cccc(-c2nc(N[C@@H]3CCOC3)c(C)c(N(C)C3CCN(C)CC3)n2)c1` (stereo partly shown) [Example 379-1a] returned an IC50 of 10 to 20 µM.

The molecule `CNC[C@H](O)COc1ccc(Cl)c(-c2nc(-c3c(C)noc3C)c(C)c(N3Cc4ccncc4C3)n2)c1` [Example 90-3] yielded an IC50 below 5 µM.

With `CNCC(O)COc1cccc(-c2nc(NC3CCN(CC(F)F)CC3)c(C)c(-c3c(C)noc3C)n2)c1` (stereo not shown) [Example 188-1a], the 50% inhibitory concentration (IC50) was below 5 µM.

For the molecule `CCOC(=O)N1CCOC[C@@H]1COc1nc(-c2cc(OC[C@H](O)CNC)ccc2Cl)nc(-c2c(C)noc2C)c1C` [Example 161-3], the IC50 was below 5 µM.

In turn, `CNC[C@H](O)COc1ccc(F)c(-c2nc(-c3c(C)noc3C)c(C)c(N3CCC4(CC3)CN(C(=O)OC)C4)n2)c1` [Example 84-3] yielded an IC50 below 5 µM.

On to `CNC[C@@H](O)COc1cccc(-c2nc(-c3c[nH]c4ncncc34)cc(N(C)C3CCOCC3)n2)c1` [Example 571-1a], for which the IC50 lay within 10 to 20 µM.

On to `CNCC(O)COc1cccc(-c2nc(N[C@@H]3CCOC3)c(C)c(-c3ccncc3)n2)c1` (stereo partly shown) [Example 332-1a], for which the IC50 lay within 10 to 20 µM.

`CNCC(O)COc1cc(Cl)cc(-c2nc(-c3ccncc3)cc(N3CCOCC3)n2)c1` (stereo not shown) [Example 632-1a]: the IC50 is at least 20 µM.

Regarding `CNCC(O)COc1cccc(-c2nc(NC3CCNC[C@H]3F)c(C)c(-c3c(C)noc3C)n2)c1` (stereo partly shown) [Example 207-1a], the IC50 is below 5 µM.

Turning to `CNC[C@@H](O)COc1ccc(Cl)c(-c2nc(-c3c(C)noc3C)c(C)c(N3CC(CO)(CO)C3)n2)c1` [Example 163-3], the IC50 lay in the range of 5 to 10 µM.

In turn, `CCOC(=O)N1CCN(c2nc(-c3cccc(OCC(O)CNC)c3)nc(N[C@@H]3CCOC3)c2C)CC1` (stereo partly shown) [Example 456-1a] returned an IC50 below 5 µM.

Molecule `CNC[C@H](O)COc1ccc(F)c(-c2nc(NC3CCOC(C)C3)c(C)c(-c3c(C)noc3C)n2)c1` (stereo partly shown) [Example 73-3] registered an IC50 below 5 µM.

Regarding `CNCC(O)COc1cccc(-c2nc(NCC3CN(C)CCO3)c(C)c(-c3c(C)noc3C)n2)c1` (stereo not shown) [Example 171-1a], the concentration for half-maximal inhibition (IC50) was below 5 µM.

In turn, `CNCC(O)COc1cccc(-c2nc(NC3CCOCC3)cc(-c3ccc(OC)c(OC)c3)n2)c1` (stereo not shown) [Example 658-1a] returned an IC50 of at least 20 µM.

As for `CNCC(O)COc1cccc(-c2nc(NC3CCOC3)c(C)c(N3CCN4C(=O)OC[C@@H]4C3)n2)c1` (stereo partly shown) [Example 454-1a], the IC50 lay in the range of 5 to 10 µM.

For `CNCC(O)COc1cccc(-c2nc(-c3c(C)noc3C)cc(N3CC[C@H](S(C)(=O)=O)C3)n2)c1` (stereo partly shown) [Example 69-1a], the IC50 lay in the range of 10 to 20 µM.

`CNCC(O)COc1cccc(-c2nc(NCC3CCN(C(=O)OC)CC3)c(C)c(-c3c(C)noc3C)n2)c1` (stereo not shown) [Example 184-1a] yielded an IC50 below 5 µM.

As for `CNC[C@@H](O)COc1ccc(Cl)c(-c2nc(-c3c(C)noc3C)cc(N3CC4(CCOCC4)C3)n2)c1` [Example 249-3], the IC50 was below 5 µM.

On to `CNC[C@@H](O)COc1cccc(-c2nc(NC3CCOCC3)cc(-c3c(C)noc3C)n2)c1` [Example 18-1a], for which the IC50 is below 5 µM.

Molecule `CNCC(O)COc1cccc(-c2nc(N[C@H]3CCOC3)c(C)c(N3CCOCC3)n2)c1` (stereo partly shown) [Example 26-1] came in with an IC50 of 10 to 20 µM.

Molecule `CNC[C@H](O)COc1ccc(Cl)c(-c2nc(NCC3COCCO3)c(C)c(-c3c(C)noc3C)n2)c1` (stereo partly shown) [Example 96-3] gave an IC50 below 5 µM.

In turn, `CNCC(O)COc1cccc(-c2nc(-c3cnc4cnccn34)cc(N(C)C3CCOCC3)n2)c1` (stereo not shown) [Example 490-1a] yielded an IC50 below 5 µM.

In turn, `CNCC(O)COc1cccc(-c2nc(N[C@@H]3CCOC[C@@H]3F)c(C)c(-c3c(C)noc3C)n2)c1` (stereo partly shown) [Example 271-1a] yielded an IC50 below 5 µM.

For `CNC[C@H](O)COc1ccc(F)c(-c2nc(-c3c(C)noc3C)c(C)c(N3CCC4(CC3)CN(S(C)(=O)=O)C4)n2)c1` [Example 76-3], the IC50 was below 5 µM.

In turn, `CNCC(O)COc1cccc(-c2nc(NC3CN(C(=O)C4CC4)C3)c(C)c(-c3c(C)noc3C)n2)c1` (stereo not shown) [Example 264-1a] yielded an IC50 of 5 to 10 µM.

`CNCC(O)COc1cccc(-c2nc(-c3c(C)noc3C)c(C)c(N3CCN(Cc4ccccc4)C(C(F)F)C3)n2)c1` (stereo not shown) [Example 235-1a]: the IC50 is below 5 µM.

`CNCC(O)COc1cccc(-c2nc(-c3c(C)noc3C)c(C)c(N3CC4(CN(C(=O)OC)C4)C3)n2)c1` (stereo not shown) [Example 299-1a]: the IC50 was below 5 µM.

Turning to `CNCC(O)COc1cccc(-c2nc(N[C@@H]3CCOC3)c(C)c(-n3nc(C)cc3C)n2)c1` (stereo partly shown) [Example 382-1a], the IC50 lay within 10 to 20 µM.

For the molecule `CNCC(O)COc1cccc(-c2nc(N[C@@H]3CCOC3)c(C)c(N3Cc4cccnc4C3)n2)c1` (stereo partly shown) [Example 394-1a], the IC50 is below 5 µM.

For the molecule `CCOC(=O)N1CCC[C@H]1CCNc1nc(-c2cc(OC[C@H](O)CNC)ccc2Cl)nc(-c2c(C)noc2C)c1C` [Example 137-3], the IC50 was below 5 µM.

`CNCC(O)COc1cccc(-c2nc(N(C)c3cncnc3)cc(N(C)C3CCOCC3)n2)c1` (stereo not shown) [Example 487-1a] returned an IC50 below 5 µM.

As for `CNCC(O)COc1cccc(-c2nc(-c3ccncc3)c(C)c(N(C)[C@@H]3CCOC3)n2)c1` (stereo partly shown) [Example 339-1a], the IC50 was in the range of 10 to 20 µM.

`CNCC(O)COc1cccc(-c2nc(NC3CN(C(=O)OC)C3)c(C)c(-c3c(C)noc3C)n2)c1` (stereo not shown) [Example 275-1a] yielded an IC50 of 10 to 20 µM.

As to `CNCC(O)COc1ccc(Cl)c(-c2nc(NC3CC4(CCN(C(=O)OC)CC4)C3)c(C)c(-c3c(C)noc3C)n2)c1` (stereo not shown) [Example 37-3], the IC50 is below 5 µM.

Molecule `CNCC(O)COc1cccc(-c2nc(N(C)C3CCOCC3)cc(N3C[C@H]4C[C@@H]3CN4)n2)c1` (stereo partly shown) [Example 562-1a] registered an IC50 of 10 to 20 µM.

On to `CNCC(O)COc1cccc(-c2nc(-c3c(C)noc3C)cc(N(C)CCC#N)n2)c1` (stereo not shown) [Example 5-1a], for which the IC50 is 10 to 20 µM.

`CCS(=O)(=O)N1CCC(Nc2nc(-c3cccc(OCC(O)CNC)c3)nc(-c3c(C)noc3C)c2C)C1` (stereo not shown) [Example 197-1a] displayed an IC50 below 5 µM.

In the case of `CNCC(O)COc1cccc(-c2nc(N[C@@H]3CCOC3)c(C)c(-c3c(C)noc3C)n2)c1` (stereo partly shown) [Example 66-1a], the IC50 is below 5 µM.

`CNCC(O)COc1cccc(-c2nc(-c3c(C)noc3C)cc(N3CCN(S(C)(=O)=O)[C@H](C)C3)n2)c1` (stereo partly shown) [Example 147-1a] showed an IC50 below 5 µM.

The molecule `CNCC(O)COc1cccc(-c2nc(-c3c(C)noc3C)cc(N(C)c3cnc(OC)nc3)n2)c1` (stereo not shown) [Example 51-1a] had an IC50 of 10 to 20 µM.

Turning to `CNC[C@@H](O)COc1ccc(Cl)c(-c2nc(-c3c(C)noc3C)c(C)c(N3CC4(CCC4)C3)n2)c1` [Example 246-3], the IC50 was below 5 µM.
